Data on four molecules can be found in patent publication US20060160773A1, “Combretastatin derivatives with cytotoxic action” (priority 2003, published 2006).

A short description of data set [1]: Evaluation of cardiovascular parameters (blood pressure, heart rate) in anaesthetised rats. The class given is in vivo. Conditions: 20 or 40 mg/kg injected in the jugular vein, anaesthetised Wistar rats (FIG. 1). The procedure:
Combretastatin A4, its prodrug ST2494 and our water soluble selected compounds ST2495 and ST2496, diluted at the doses of 20 or 40 mg/kg in saline solution or for combretastatin A4 in 5% DMSO, were injected in the jugular vein of Wistar rats anaesthetised with 55 mg/kg Nembutal. The parameter considered were blood pressure and heart rate.

The test system of data set [2] is cell growth. Conditions: background statement; cited from earlier work.
The conditions of data set [3]: Cancer Res., 62:3408-3416, 2002; cited from earlier work.
Data set [4] relates to HCT 116 human colorectal carcinoma. Briefly: Cytotoxicity test (sulforodamine B), HCT 116. Format: cell-based. The settings on record: Homo sapiens, HCT-116, read-out: IC50 ± SE. As for the experimental part: (§1) The cytotoxic effect of our derivatives was evaluated in series of human and murine cell lines.
(§2) The following cell lines, purchased from ATCC, were cultured according to the manufacturer's instructions: MeWo human melanoma, NCI-H460 human lung cancer, LoVo human colon adenocarcinoma, PC3 human prostate carcinoma, MES-SA human uterine sarcoma, HCT 116 human colorectal carcinoma, MCF-7 human breast carcinoma.
(§3) For the cytotoxicity test the cells were seeded at variable densities according to cell type in 96-well plates in normal culture medium (200 μl/well) and incubated for 24 hours at 37° C. On the next day, the study substances were added at scalar concentrations and the cells were incubated for a further 24 hours at 37° C. in a humidified atmosphere containing 5% CO2. At the end of the incubation period the medium containing the substances was removed and three washings with PBS were performed. At the end of the washings 200 μl/well of fresh medium were added and the plates were incubated at 37° C. for a further 48 hours. At the end of this incubation period the culture medium was removed by overturning the plates and 200 μl/well of PBS and 50 μl of 80% cold trichloroacetic acid (TCA) were added. The plates were then incubated in ice. After 1 h the TCA was removed, the plates were washed three times by immersion in distilled water and dried first on blotting paper and then in the oven. 200 μl of 0.4% sulforodamine B in 1% acetic acid were then added to all wells. The plates were incubated at room temperature for a further 30 minutes. The sulforodamine B was removed by overturning, the plates were washed three times by immersion in 1% acetic acid, and then dried first on blotting paper and then in the oven. 200 μl of Tris base 10 mM were then added to all wells and the plates were placed under stirring for at least 20 min. The optical density was measured by spectrophotometric readout at 540 nm.
(§4) In the same table are reported the IC50 of ST2897, ST2898 and ST2899 on BMEC.

Data set [5] relates to B16/BL6 murine melanoma line. Briefly: Cytotoxicity test (sulforodamine B), B16/BL6. The class given is cell-based. Conditions: Mus musculus, B16-BL6, read-out: IC50 ± SE. The procedure:
as §1
The B16/BL6 murine melanoma line, obtained from the M. Negri Institute in Milan, was cultured in DMEM containing 10% FBS and antibiotics.
as §3, §4

The subject of data set [6] is EA-hy926, an immortalised hybridoma of HUVEC and adenocarcinoma cells. Briefly: Cytotoxicity test (sulforodamine B), EA-hy926. Format: cell-based. The settings on record: Homo sapiens, EA.hy 926; EAHY.926; 24 h exposure, 48 h recovery, SRB. As for the experimental part:
as §1
(§5) Bovine microcirculatory endothelial cells (BMEC), isolated from bovine adrenal glands, were maintained in culture in DMEM containing 20% FBS, 50 μg/ml of bovine brain extract (BBE), 50 units/ml of heparin (SIGMA), 100 units/ml of gentami-cin (SIGMA) and 10 mg/ml of L-glutamine (Hyclone). EA-hy926, an immortalised hybridoma of HUVEC and adenocarcinoma cells, obtained from the University of Bari Department of Biomedical Sciences and Human Oncology, was cultured in DMEM added with 10% FBS and gentamicin.
(§6) For the cytotoxicity test the cells were seeded at variable densities according to cell type in 96-well plates in normal culture medium (200 μl/well) and incubated for 24 hours at 37° C. On the next day, the study substances were added at scalar concentrations and the cells were incubated for a further 24 hours at 37° C. in a humidified atmosphere containing 5% CO2. At the end of the incubation period the medium containing the substances was removed and three washings with PBS were performed. At the end of the washings 200 μl/well of fresh medium were added and the plates were incubated at 37° C. for a further 48 hours. […] The optical density was measured by spectrophotometric readout at 540 nm. […]

Data set [7] concerns HT29 human colon adenocarcinoma line. Briefly: Cytotoxicity test (sulforodamine B), HT29. Format: cell-based. The settings on record: Homo sapiens, HT-29, read-out: IC50 ± SE. The procedure: as §1
(§7) The M109 murine lung cancer line, the HT29 human colon adenocarcinoma line, the A2780 human ovarian carcinoma line, obtained from the Milan Tumour Institute, were cultured in RPMI containing 10% FBS and antibiotics.
as §3, §4

For data set [8], the system named is tubulin rich in microtubule-associated proteins (MAP). In words: Tubulin polymerisation inhibition test. Format: biochemical. Conditions: vs not treated control; mean of 3 independent determinations; concentration not given. The procedure: The tubulin polymerisation test in the presence of ST2151 was performed as described by Shiff et al. (Biochemistry, 1981, 20: 3247-3252) with a number of modifications. In brief, tubulin rich in microtubule-associated proteins (MAP) was diluted to the concentration of 3 mg/ml in PEM buffer [100 mM PIPES (pH 6.9), 1 mM EGTA and 1 mM MgCl2] containing 1 mM GTP (GPEM), and maintained in ice. The solution was placed at 37° C. and polymerisation was monitored by measuring absorbance at 340 nm every 25 seconds with a spectrophotometer equipped with an electronic temperature control device (Cobas-Mira Analyzer). After 5 minutes, when the polymerised tubulin had reached a steady state, 5 μM Taxol, 1.35 μM Colcemid, or ST2151 were added and the absorbance measurements were taken for a further 15 min. The IC50 values were determined by non-linear regression analysis using “Prism GraphPad” software. Results were expressed as % inhibition of tubulin polymerization vs not treated control.
The value indicated in Table 2 is the mean of 3 independent determinations.

Data set [9] has as its system MCF-7 human breast carcinoma. Briefly: Cytotoxicity test (sulforodamine B), MCF-7. Format: cell-based. The settings on record: Homo sapiens, MCF7, read-out: IC50 ± SE. As for the experimental part: as §1, §2, §3, §4
In data set [10] the test system is PC3 human prostate carcinoma. In words: Cytotoxicity test (sulforodamine B), PC3. Format: cell-based. The settings on record: 24 h exposure, 48 h recovery, SRB. As for the experimental part:
as §1, §2
as §6, with “hours. At the end of this incubation period the culture medium was removed by overturning the plates and 200 μl/well of PBS and 50 μl of 80% cold trichloroacetic acid (TCA) were added. The plates were then incubated in ice.” for “hours.”

For data set [11], the system named is MES-SA human uterine sarcoma. In words: Cytotoxicity test (sulforodamine B), MES-SA. The class given is cell-based. Conditions: Homo sapiens, MES-SA, read-out: IC50 ± SE. The procedure: as §1, §2, §3, §4
The test system of data set [12] is NCI-H460 human lung cancer. In words: Cytotoxicity test (sulforodamine B), NCI-H460. Format: cell-based. Conditions: Homo sapiens, NCI-H460, read-out: IC50 ± SE. As for the experimental part:
as §1, §2, §3, §4

The test system of data set [13] is MeWo human melanoma. In words: Cytotoxicity test (sulforodamine B), MeWo. The class given is cell-based. The settings on record: Homo sapiens, read-out: IC50 ± SE. The procedure: as §1, §2, §3, §4
The subject of data set [14] is Bovine microcirculatory endothelial cells (BMEC). Briefly: Cytotoxicity test (sulforodamine B), BMEC. Format: cell-based. The settings on record: Bos taurus, Endothelial cell, read-out: IC50 ± SE. The procedure:
as §1, §5, §3, §4

Data set [15] has as its system Human umbilical vein endothelial cells (HUVEC). Briefly: Cytotoxicity test (sulforodamine B), HUVEC. The settings on record: Homo sapiens, read-out: IC50 ± SE. The class given is cell-based. As for the experimental part:
as §1
Human umbilical vein endothelial cells (HUVEC), from the BioWhittaker company, were maintained in EGM-2 culture medium (BioWhittaker).
as §3, §4

For data set [16], the system named is M109 murine lung cancer line. In words: Cytotoxicity test (sulforodamine B), M109. Format: cell-based. Conditions: Mus musculus, 24 h exposure, 48 h recovery, SRB. As for the experimental part:
as §1, §7
as §3, with “200 μl of 0.4% sulforodamine B in 1% acetic acid were then added to all wells. The plates were incubated at room temperature for a further 30 minutes. The sulforodamine B was removed by overturning, the plates were washed three times by immersion in 1% acetic acid, and then dried first on blotting paper and then in the oven. 200 μl of Tris base 10 mM were then added to all wells and the plates were placed under stirring for at least 20 min.” left out, “nm. […]” for “nm.”

The test system of data set [17] is LoVo human colon adenocarcinoma. In words: Cytotoxicity test (sulforodamine B), LoVo. The class given is cell-based. The settings on record: 24 h exposure, 48 h recovery, SRB. As for the experimental part: as §1, §2
as §6, with “hours. At the end of this incubation period the culture medium was removed by overturning the plates and 200 μl/well of PBS and 50 μl of 80% cold trichloroacetic acid (TCA) were added. The plates were then incubated in ice.” for “hours.”

The test system of data set [18] is A2780 human ovarian carcinoma line. Briefly: Cytotoxicity test (sulforodamine B), A2780. Format: cell-based. The settings on record: Homo sapiens, A2780, read-out: IC50 ± SE. The procedure: as §1, §7, §3, §4

Turning to `COc1ccc(/C=C\c2cc(OC)c(OC)c(OC)c2)cc1O` [Combretastatin A4, Combretastatin A-4, reference compound], in [1], the blood pressure entry is on record as “significant increase in blood pressure” and the heart rate entry is recorded as “progressive decrease of heart rate”. For the same molecule, the “concentration inhibiting cell growth” value in data set [2] is reported as “of the order of nanomoles”.

With `COc1ccc(/C=C\c2cc(OC)c(OC)c(OC)c2)cc1OP(=O)(O)O` [combretastatin A4-P], the “side effects in Phase I study” value in data set [3] was “episodes of dose-limiting toxicity, including cases of acute coronary syndrome”.

A word on the IC50: it is the concentration that gives 50% inhibition. In the case of `COc1cc(/C=C\c2cc(O)c3ccsc3c2)cc(OC)c1OC` [ST2151, Cis-6-[2-(3,4,5-trimethoxy-phenyl)-vinyl]-benzo[b]thiophen-4-ol], the IC50 is 84 ± 3.8 nM in data set [4]; 85 ± 0.5 nM in data set [5]; 52 ± 4.9 nM in data set [6]; 900 ± 65 nM in data set [7]; 66 ± 2.7 nM in data set [9]; 120 ± 0.01 nM in [10]. Moreover, the IC50 in [11] came to 86 ± 10 nM; in [12], 74 ± 2.9 nM; in data set [13], 68 ± 5 nM; in [14] it was 87 ± 1 nM; in data set [15] it was 49 ± 0.64 nM; in data set [16] it was 490 ± 30 nM. For the same molecule, the IC50 in data set [17] came out at 360 ± 0.01 nM; in data set [18], 70 ± 2 nM. In addition, the “% inhibition of tubulin polymerization” value in data set [8] is given as 37.1%.

On to `COc1cc(/C=C\c2cc(O)c3ccoc3c2)cc(OC)c1OC` [ST2179, Cis-6-[2-(3,4,5-trimethoxy-phenyl)-vinyl]-benzofuran-4-ol], for which the IC50 in data set [4] turned out to be 54 ± 9 nM; in data set [5], 44 ± 3.8 nM; in [6], 40 ± 3.9 nM; in [7], 990 ± 40 nM; in data set [9], 38 ± 3 nM; in [10], 100 ± 0.01 nM. Besides, the half-maximal inhibitory concentration (IC50) in [11] was 40 ± 4 nM; in [12], 53 ± 1.3 nM; in [13], 71 ± 17 nM; in data set [14] it was 49 ± 1 nM; in data set [16] it was 93 ± 6 nM; in data set [17], 490 ± 0.04 nM. Besides, the IC50 in [18] turned out to be 50 ± 2 nM. The “% inhibition of tubulin polymerization” value in data set [8] is given as 44.0%.
